According to patent US20250235543A1, “MODIFIED PROTEINS AND PROTEIN DEGRADERS” (Cullgen (Shanghai), Inc., priority 2021, published 2025):

Tests used:
Type in all cases: cell-based
[1] = target: T1, BRD4 (Homo sapiens, UniProt O60885); experiment: Immunoblot of BRD4 protein levels in Daudi, SU-DHL-4 or MDA-MB-231 cells; settings: SU-DHL-4 or MDA-MB-231 cell lines, 8 hours, dose range
T1 construct: endogenous in cells; host or cells: Daudi, SU-DHL-4, MDA-MB-231
Excerpt: Additional exemplary heterobifunctional compounds were designed to modulate the protein levels of either P300/CBP, or BRD4, and characterized in multiple cell lines. […] Taken together, DDB1 ligands conjugating with different target ligands may modulate the cellular target protein levels of cyclin D, CDK4/6, P300/CBP and BRD4.

[2] = target: T1, BRD4; experiment: Immunoblotting of BRD4 protein levels in multiple cell lines; settings: Daudi, SU-DHL-4, or MDA-MB-231 cells, 8 hours
Method: Daudi, SU-DHL-4, or MDA-MB-231 cells were treated with CPD-253 at indicated concentrations for 8 hours.
Cultured cells were washed with cold PBS once and lysed in cold RIPA buffer supplemented with protease inhibitors and phosphatase inhibitors (Beyotime Biotechnology). The solutions were then incubated at 4° C. for 30 min with gentle agitation to fully lysed cells. Cell lysates were centrifuged at 13,000 rpm for 10 min at 4° C. and pellets were discarded. Total protein concentrations in the lysates were determined following BCA assays (Beyotime Biotechnology). Cell lysates were mixed with Laemmli loading buffer and heated at 99° C. for 5 min. Proteins were resolved on SDS-PAGE and visualized using Western ECL Substrate kits on a ChemiDoc MP Imaging system (Bio-Rad). Protein bands were quantitated using the Image Lab software provided by Bio-Rad.

[3] = tested on: T47D cells; experiment: Flow cytometric analysis of Annexin V/7-AAD stained T47D cells; settings: 6 days
Method: ER^+ breast cancer T47D cells were treated with DMSO, palbociclib, heterobifunctional compound CPD-343, or negative control compound CPD-380 for 6 days at doses approximating IC50 and IC90 concentrations determined in FIGS. 10A and 13. Cells were harvested by trypsinization, staining was carried out using the Annexin V Apoptosis Detection Kit. The percentages of early apoptotic (Annexin V^+7-AAD^−, lower right quadrant), late apoptotic (Annexin V^+7-AAD^+, upper right quadrant) and necrotic cells (Annexin V-7-AAD^+, upper left quadrant) are indicated on dot plots. […] Furthermore, we developed one ER^+ breast cancer T47D model with acquired resistance after long period of treatment with 1 μM palbociclib (over IC90). Cells were deemed resistant when growing in the presence of palbo at the same rate as parental cells. Palbo resistance was determined by CellTiter-Lumi cell viability assay.

[4] = tested on: T47D palbo-resistant model; experiment: CellTiter-Lumi cell viability in T47D palbociclib-resistant model; settings: 6 days; resistance acquired under 1 μM palbociclib
Method: Furthermore, we developed one ER^+ breast cancer T47D model with acquired resistance after long period of treatment with 1 μM palbociclib (over IC90). […] Palbo resistance was determined by CellTiter-Lumi cell viability assay.

[5] = tested on: cyclin D1; experiment: Cyclin D1 percentage degradation in Calu-1 cells (immunoblotting); settings: 200 nM, 16 hours
Procedure, shortened: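 Cyclin D1 degradation was assessed by western blot. Clarified lysates, obtained by RIPA lysis with inhibitors and centrifugation at 13,000 rpm, were normalized by BCA protein assay and separated by SDS-PAGE. Bands were detected with Western ECL Substrate on a Bio-Rad ChemiDoc MP Imaging system and quantified in Image Lab software to derive percentage degradation.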

[6] = target: T2, CDK4 (Homo sapiens, UniProt P11802); experiment: CDK4 percentage degradation in Calu-1 cells (immunoblotting); settings: Calu-1 cells, 200 nM, 16 hours; read-out: CDK4 Degradation (200 nM)
T2 construct: endogenous in cells; host or cells: Calu-1
T2 sequence (P11802 2-303 limits assumed): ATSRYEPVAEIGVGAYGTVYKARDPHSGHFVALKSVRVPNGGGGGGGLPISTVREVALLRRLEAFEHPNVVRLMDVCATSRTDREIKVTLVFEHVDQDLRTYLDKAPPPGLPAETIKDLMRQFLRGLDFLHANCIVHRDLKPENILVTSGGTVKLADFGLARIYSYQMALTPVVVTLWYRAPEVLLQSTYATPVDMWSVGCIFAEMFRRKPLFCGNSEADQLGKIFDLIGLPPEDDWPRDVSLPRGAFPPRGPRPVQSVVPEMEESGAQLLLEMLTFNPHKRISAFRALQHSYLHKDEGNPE
T2 sequence (P24385 whole entry partner): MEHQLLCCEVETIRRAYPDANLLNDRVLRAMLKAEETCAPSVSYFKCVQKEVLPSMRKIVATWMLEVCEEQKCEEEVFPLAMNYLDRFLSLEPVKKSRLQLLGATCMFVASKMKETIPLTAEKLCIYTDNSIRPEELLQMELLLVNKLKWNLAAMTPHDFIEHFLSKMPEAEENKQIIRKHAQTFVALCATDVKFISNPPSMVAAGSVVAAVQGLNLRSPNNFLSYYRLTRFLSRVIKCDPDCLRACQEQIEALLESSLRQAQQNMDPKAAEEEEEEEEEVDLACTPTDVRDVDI
T2 sequence (Q16531 2-1140 limits assumed, further chain): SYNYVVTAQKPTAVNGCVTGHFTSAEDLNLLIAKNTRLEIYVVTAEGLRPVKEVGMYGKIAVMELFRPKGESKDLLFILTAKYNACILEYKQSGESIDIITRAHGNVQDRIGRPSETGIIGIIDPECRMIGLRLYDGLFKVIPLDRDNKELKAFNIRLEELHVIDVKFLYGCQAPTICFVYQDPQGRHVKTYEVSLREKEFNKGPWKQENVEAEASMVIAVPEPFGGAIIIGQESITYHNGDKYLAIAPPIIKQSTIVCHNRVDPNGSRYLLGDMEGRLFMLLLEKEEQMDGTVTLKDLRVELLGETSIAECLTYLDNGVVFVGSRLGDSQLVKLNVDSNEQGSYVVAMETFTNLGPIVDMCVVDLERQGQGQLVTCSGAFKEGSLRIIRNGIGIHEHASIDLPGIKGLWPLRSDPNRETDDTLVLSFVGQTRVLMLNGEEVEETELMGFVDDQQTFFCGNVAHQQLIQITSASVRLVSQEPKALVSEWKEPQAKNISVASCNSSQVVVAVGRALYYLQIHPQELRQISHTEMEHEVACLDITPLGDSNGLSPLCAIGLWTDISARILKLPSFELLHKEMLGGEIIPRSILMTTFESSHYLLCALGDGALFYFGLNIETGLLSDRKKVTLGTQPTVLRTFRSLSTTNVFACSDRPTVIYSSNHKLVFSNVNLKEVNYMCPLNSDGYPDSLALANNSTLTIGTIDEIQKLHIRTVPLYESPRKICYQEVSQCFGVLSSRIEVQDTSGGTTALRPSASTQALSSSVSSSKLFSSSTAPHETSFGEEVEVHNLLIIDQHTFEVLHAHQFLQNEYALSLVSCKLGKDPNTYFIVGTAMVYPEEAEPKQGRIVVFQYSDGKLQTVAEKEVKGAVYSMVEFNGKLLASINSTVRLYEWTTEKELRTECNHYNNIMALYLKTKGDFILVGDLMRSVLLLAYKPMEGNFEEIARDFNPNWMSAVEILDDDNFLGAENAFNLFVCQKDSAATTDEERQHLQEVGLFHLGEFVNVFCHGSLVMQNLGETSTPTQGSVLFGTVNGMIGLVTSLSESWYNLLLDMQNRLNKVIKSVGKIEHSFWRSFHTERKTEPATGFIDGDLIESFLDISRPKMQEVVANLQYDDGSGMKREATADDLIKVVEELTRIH
Procedure, shortened: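 CDK4 degradation was measured by immunoblotting. Cells were washed in cold PBS and lysed in RIPA buffer with inhibitors for 30 min at 4° C., then spun at 13,000 rpm to clear. After BCA protein determination, lysates were heated at 99° C. for 5 min in Laemmli buffer, resolved on SDS-PAGE, imaged on a ChemiDoc MP with ECL substrate, and band intensities quantified.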

[7] = tested on: T47D cells; experiment: Annexin V apoptosis flow cytometry in T47D cells; settings: 6 days
Method: T47D cells were treated with DMSO, palbociclib, heterobifunctional compound CPD-343, or negative control compound CPD-380 for 6 days at doses approximating IC50 and IC90 concentrations as indicated. Cells were harvested by trypsinization, staining was carried out using the Annexin V Apoptosis Detection Kit.
Assays were performed on the CytoFLEX Cytometer (Beckman Coulter), and data were analyzed using CytExpert software. For cell death and apoptosis analysis, cells were harvested by trypsinization, staining was carried out using the Annexin V Apoptosis Detection Kit (BD Biosciences). Briefly, cells were resuspended in 1× binding buffer and incubated with fluorochrome-conjugated Annexin V and 7-AAD for 15 min in darkness at room temperature.

[8] = tested on: T47D palbo-resistant cells; experiment: Cell viability in T47D palbo-resistant model; settings: 10-point serial dilution, 6 days
Method: T47D cells were cultured long-term to resistance in the presence of 1 μM Palbocicilib. Palbo resistance was determined by CellTiter-Lumi cell viability assay. T47D parental or palbo-resistant cells were treated with palbociclib, or heterobifunctional compound CPD-343 following a 10-point serial dilution for 6 days.
Calu-1, T47D, MCF7, NCI-H522, BT-549, MDA-MB-157, MDA-MB-453, MDA-MB-468, Hs578T, KURAMOCHI, OVCAR3, MIA PaCa-2, Cal-62, LNCaP, NCI-H1703, MM.1R, Daudi, SU-DHL-4, MDA-MB-231 and other cells were cultured at 37° C. with 5% CO2 in RPMI 1640 or DMEM medium supplemented with 10% fetal bovine serum. Cells were authenticated using the short tandem repeat (STR) assays. Mycoplasma test results were negative. Cell transfection was performed using PEI or Lipofectamine 2000 (Invitrogen) following the manufacturer's instructions. […]
Cells were seeded at a density of 2,000-5,000 cells per well in 96-well assay plates and treated with test compounds following a 10-point serial dilution for 3-6 days. Cell viability was determined using the CellTiter-Lumi assay kit according to the manufacturer's instructions. The dose-response curves were determined and IC50 values were calculated using the GraphPad Prism software following a nonlinear regression (least squares fit) method. […]

SMILES | reduction of BRD4 protein levels [1] | BRD4 protein levels [2] | Annexin V+ population ([3]; 10 nM) [%] | Annexin V+ population ([3]; 200 nM) [%] | activity in T47D palbo-resistant model compared to parental cells [4] | CyclinD1 Degradation (200 nM) [5] | inhibition at 0.2 µM [6] [%] | Annexin V+ population ([7]; 10 nM) [%] | Annexin V+ population ([7]; 200 nM) [%] | cell viability in T47D palbo-resistant model [8]
Cc1nc(NC(=O)c2ccccc2NC(=O)CCCCCCCCCCCNCCNC(=O)C[C@@H]2N=C(c3ccc(Cl)cc3)c3c(sc(C)c3C)-n3c(C)nnc32)sc1C [CPD-253, (S)-2-(12-((2-(2-(4-(4-Chlorophenyl)-2,3,9-trimethyl-6H-thieno[3,2-f][1,2,4]triazolo[4,3-a][1,4]diazepin-6-yl)acetamido)ethyl)amino)dodecanamido)-N-(4,5-dimethylthiazol-2-yl)benzamide] | dramatically reduce | reduced BRD4 protein levels in a concentration-dependent manner |  |  |  |  |  |  |  | 
CNc1ccc(C(=O)Nc2ccc(OC)nn2)c(NC(=O)CCOCCOCCNC(=O)CN2CCN(c3ccc(Nc4ncc5c(C)c(C(C)=O)c(=O)n(C6CCCC6)c5n4)nc3)CC2)c1 [CPD-343, 2-(3-(2-(2-(2-(4-(6-((6-Acetyl-8-cyclopentyl-5-methyl-7-oxo-7,8-dihydropyrido[2,3-d]pyrimidin-2-yl)amino)pyridin-3-yl)piperazin-1-yl)acetamido)ethoxy)ethoxy)propanamido)-N-(6-methoxypyridazin-3-yl)-4-(methylamino)benzamide] |  |  | 26.9 | 52.6 | remain effective | A (protein percentage degradation >=80%) | > 80 | 26.9 | 52.6 | remained effective in T47D palbo-resistant model
